# Tests used:
# galectin-1 = tested on: galectin-1; set-up: method as in Delaine et al., Salameh et al., Peterson et al.; conditions: lower compared to galectin-3; ref Delaine et al., Salameh et al., Peterson et al.; cited from earlier work
# galectin-3 = galectin-3 (Homo sapiens, UniProt P17931); assay: GPN-induced galectin-3 accumulation (puncta) in JIMT-1 breast cancer cells; type: cell-based; set-up: In the intracellular assay, in contrast, only endogenous galectin was present; endogenous in cells; host or cells: JIMT-1 breast cancer cells
# Sequence of galectin-3 (P17931 whole entry): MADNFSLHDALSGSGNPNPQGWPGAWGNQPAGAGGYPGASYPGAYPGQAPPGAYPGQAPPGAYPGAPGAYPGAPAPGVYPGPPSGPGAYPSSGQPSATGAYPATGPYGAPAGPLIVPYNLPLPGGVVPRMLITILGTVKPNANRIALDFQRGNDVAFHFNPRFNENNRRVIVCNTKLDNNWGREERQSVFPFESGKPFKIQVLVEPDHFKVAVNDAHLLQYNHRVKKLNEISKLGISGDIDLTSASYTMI
# Procedure: The total number of galectin-3 puncta and nuclei in the microscopy images were quantified using the software ImageJ.
# Cells were seeded in multi-well plates with sterile glass coverslips placed in each well and allowed to adhere to the cell culture surface for at least 24 hours. Then the cells were pre-treated with the different galectin-3 inhibitors at different concentrations (or DMSO as control) for 15 minutes or 24 hours followed by addition of the lysosomal damaging peptide GPN[42] and incubated another 13 minutes, with the inhibitors still present. The 13-minute incubation with GPN and 15-minute pre-incubation with inhibitors were done in DMEM/Ham’s F12 medium with 15 mM HEPES buffer (without serum), whereas the 24-hour incubation with inhibitors were performed in fully supplemented DMEM/Ham’s F12 medium (as described under Cell culture).
# After treatment with GPN, the cells were fixed in 3.7% (v/v) formaldehyde in phosphate-buffered saline (PBS) for 15 minutes, permeabilized and blocked using 1% (v/v) TWEEN 20 and 5% (w/v) BSA in PBS for 30 minutes, then incubated with primary and secondary antibodies for one hour each (washed with PBS in between). Primary and secondary antibodies for galectin-3 staining were a rat anti-mouse galectin-3 IgG antibody[50],[51] […] All antibodies were diluted in 0.05% TWEEN 20 and 5% BSA in PBS. […] The coverslips were mounted on glass slides using Mowiol® 4–88 and left at 8 °C overnight before further examination. For imaging of the cells, a LSM-510 confocal laser scanning microscope (Carl Zeiss Microscopy GmbH, Oberkochen, Germany), equipped with a Hamamatsu R6357 photomultiplier (Hamamatsu Photonics K.K., Hamamatsu, Japan), was used. […] Maximum intensity projections of each picture obtained were analyzed with ImageJ 1.47 v (Rasband, W.S., ImageJ, U. S. National Institutes of Health, Bethesda, Maryland, USA) to quantify the number of galectin-3 dots and the number of nuclei in each picture. The quantification of particles (i.e. galectin-3 puncta/nucleus) was carried out using batch processing in the software, where a single macro (including parameters such as image thresholds, particle size and circularity) was used for all images obtained from a single experiment, this to reduce user bias and time consumption.
# AsPC-1 cells = assay: Growth curves, AsPC-1; type: cell-based; conditions: AsPC-1, 10 µM
# Procedure: METHODS (not described in main article)
# The AsPC-1, BxPc-3, MIA PaCa-2, and PanC-1 pancreatic cancer cell lines were purchased from the American Type Culture Collection (ATCC) (Manassas, VA, USA). AsPC-1 and BxPc-3 cell lines were cultured in RPMI-1640 medium, and MIA PaCa-2 and PanC-1 in Dulbecco's Modified Eagle Medium (DMEM)/Ham's F12 medium mixture (1:1). The medium of all four pancreatic cancer cell lines was supplemented with 10 % fetal bovine serum (FBS), 100 U/ml penicillin, and 100 μg/ml streptomycin. The L56Br-C1 breast cancer cell line was established at Lund University (Lund, Sweden)1, and was cultured in RPMI-1640 medium supplemented with 10 % heat-inactivated FBS, 100 U/ml penicillin, 100 μg/ml streptomycin, 1 mM non-essential amino acids, and 10 µg/ml insulin. The MCF-10A normal-like breast cell line was obtained from ATCC and was cultured in the same medium mixture as L56Br-C1 with the addition of 20 ng/ml epidermal growth factor, 50 ng/ml cholera toxin, and 500 ng/ml hydrocortisone.
# Fluorescence anisotropy assay
# The affinity between inhibitor 1 and the carbohydrate recognition domain (CRD) of galectin-8C and between inhibitor 3 and the CRD of galectin-2, -4N, -4C, 8C, and -9C was determined using the fluorescence anisotropy assay described in the main article. Experimental conditions used for each galectin […]
compound,measurement,setting,value
OC[C@H]1O[C@@H](S[C@@H]2O[C@H](CO)[C@H](O)[C@H](n3cc(-c4cccc(F)c4)nn3)[C@H]2O)[C@H](O)[C@@H](n2cc(-c3cccc(F)c3)nn2)[C@H]1O [compound 1],affinity for galectin-1,galectin-1,high affinity
same,inhibition of galectin-3 accumulation (extent),"galectin-3; 15 minutes pre-treatment, high concentrations 50–100 µM",complete inhibition of galectin-3 accumulation could not be reached
same,inhibition of galectin-3 accumulation (extent),"galectin-3; 24 hours pre-treatment, around 1–5 µM",nearly complete inhibition
same,cell proliferation (growth curves),AsPC-1 cells,no effect

# — paper PMC6379368, “Extracellular and intracellular small-molecule galectin-3 inhibitors” (Scientific Reports, 2019)
